Data on 27 molecules can be found in patent US20260250290A1 (BRISTOL-MYERS SQUIBB COMPANY, priority 2023, published 2026).

The test has as its target T1, full length SGK1 (Homo sapiens, UniProt O00141).
T1 construct: 125 μM full length SGK1 (Life Technologies Part #PR7358A); purchased Life Technologies PR7358A
T1 sequence (O00141 1-431): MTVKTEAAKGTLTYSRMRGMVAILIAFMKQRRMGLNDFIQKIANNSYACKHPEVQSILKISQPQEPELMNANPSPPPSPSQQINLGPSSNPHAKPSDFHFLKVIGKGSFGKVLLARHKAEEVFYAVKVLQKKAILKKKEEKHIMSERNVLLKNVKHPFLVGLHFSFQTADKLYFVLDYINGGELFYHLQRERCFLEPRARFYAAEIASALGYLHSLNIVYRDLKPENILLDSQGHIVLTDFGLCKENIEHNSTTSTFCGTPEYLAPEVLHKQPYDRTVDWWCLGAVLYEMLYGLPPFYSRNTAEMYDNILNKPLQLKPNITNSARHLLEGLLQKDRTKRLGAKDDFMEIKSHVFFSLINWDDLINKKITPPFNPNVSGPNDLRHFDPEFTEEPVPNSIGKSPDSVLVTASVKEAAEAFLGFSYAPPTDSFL
In words: SGK1 inhibition Assay A (Caliper LabChip electrophoretic separation of fluorescent peptide substrate and phosphorylated product). It counts as biochemical. The note with it: Assay A; 20 μM ATP, 40 min incubation; read-out: SGK1 IC50.

Where a name gives a salt, the structure may show the parent alone.

As a reminder, the IC50 is the concentration that gives 50% inhibition. Take `CC(=O)N1CC=C(c2cc(N3CCC[C@@H](NC(=O)c4sc(Cl)cc4OC4CCNC(C)(C)C4)C3)c3c(N)ncnn23)C1` (mixture of isomers) [Example 627, N-((R)-1-(7-(1-acetyl-2,5-dihydro-1H-pyrrol-3-y1)-4-aminopyrrolo[2,1-f][1,2,4]triazin-5-yl)piperidin-3-y1)-5-chloro-3-((2,2-dimethylpiperidin-4-yl)oxy)thiophene-2-carboxamide]: the IC50 turned out to be 10 nM.
The figure for `COC(=O)N1CC=C(c2cc(N3CCC[C@@H](NC(=O)c4sc(Cl)cc4OC4CCNC(C)(C)C4)C3)c3c(N)ncnn23)C1` (mixture of isomers) [Example 628, methyl 3-(4-amino-5-((3R)-3-(5-chloro-3-((2,2-dimethylpiperidin-4-yl)oxy)thiophene-2-carboxamido)piperidin-1-yl)pyrrolo[2,1-f][1,2,4]triazin-7-y1)-2,5-dihydro-1H-pyrrole-1-carboxylate] is 1 nM; for `CS(=O)(=O)c1ccc(-c2cc(N3CC[C@@H](F)[C@@H](NC(=O)c4ccc(Cl)s4)C3)c3c(N)ncnn23)cc1` (relative stereo) [Example 143, rel-N-((3R,4S)-1-(4-amino-7-(4-(methylsulfonyl)phenyl)pyrrolo[2,1-f][1,2,4]triazin-5-yl)-4-fluoropiperidin-3-yl)-5-chlorothiophene-2-carboxamide, TFA] it is 10 nM; for `CS(=O)(=O)c1ccc(-c2cc(N3CC[C@H](F)[C@@H](NC(=O)c4ccc(Cl)s4)C3)c3c(N)ncnn23)cc1` (relative stereo) [Example 144, rel-N-((3R,4R)-1-(4-amino-7-(4-(methylsulfonyl)phenyl)pyrrolo[2,1-f][1,2,4]triazin-5-yl)-4-fluoropiperidin-3-yl)-5-chlorothiophene-2-carboxamide, TFA] it is 24 nM.
To `CS(=O)(=O)c1ccc(-c2cc(N3CC[C@@H]4C[C@]4(NC(=O)c4ccc(Cl)s4)C3)c3c(N)ncnn23)cc1` (relative stereo) [Example 165, rel-N-((1R,6R)-3-(4-amino-7-(4-(methylsulfonyl)phenyl)pyrrolo[2,1-f][1,2,4]triazin-5-yl)-3-azabicyclo[4.1.0]heptan-1-yl)-5-chlorothiophene-2-carboxamide, TFA] belongs 284 nM; to `Nc1ncnn2c(C3=CCN(C(=O)[C@H]4C[C@@H]4F)C3)cc(N3CCC[C@@H](NC(=O)c4sc(Cl)cc4OCCN4CCOCC4)C3)c12` (relative stereo) [Example 262, rel-N-((R)-1-(4-amino-7-(1-((1R,2S)-2-fluorocyclopropane-1-carbonyl)-2,5-dihydro-1H-pyrrol-3-yl)pyrrolo[2,1-f][1,2,4]triazin-5-yl)piperidin-3-yl)-5-chloro-3-(2-morpholinoethoxy)thiophene-2-carboxamide], 18 nM.
The figure for `CC(=O)N1CC=C(c2cc(N3CCC[C@@H](NC(=O)c4sc(Cl)cc4OCC4CCCN4)C3)c3c(N)ncnn23)C1` (single isomer, unassigned) [Example 391D] is 2 nM; for `CC(=O)N1CC=C(c2cc(N3CCC[C@@H](NC(=O)c4sc(Cl)cc4OCC4CCCN4)C3)c3c(N)ncnn23)C1` (single isomer, unassigned) [Example 391E] it is 4 nM; for `CC(=O)N1CC=C(c2cc(N3CCC[C@@H](NC(=O)c4sc(Cl)cc4OCC4CCCN4C)C3)c3c(N)ncnn23)C1` (single isomer, unassigned) [Example 391] it is 4 nM.
On to `CC(=O)N1CC=C(c2cc(N3CCC[C@@H](NC(=O)c4sc(C(F)F)cc4C4CCNC4)C3)c3c(N)ncnn23)C1` (single isomer, unassigned) [Example 398F], for which the concentration for half-maximal inhibition (IC50) is 130 nM.
The figure for `CC(=O)N1CC=C(c2cc(N3CCC[C@@H](NC(=O)c4sc(Cl)cc4OC4CCCN(C)C4)C3)c3c(N)ncnn23)C1` (single isomer, unassigned) [Example 595] is 37 nM; for `CC(=O)N1CC=C(c2cc(N3CCC[C@@H](NC(=O)c4sc(Cl)cc4OC4CCNCC4F)C3)c3c(N)ncnn23)C1` (single isomer, unassigned) [Example 600D] it is 19 nM.
Take `CC(=O)N1CC=C(c2cc(N3CCC[C@@H](NC(=O)c4sc(Cl)cc4OC4CCN(C)CC4F)C3)c3c(N)ncnn23)C1` (single isomer, unassigned) [Example 600]: the IC50 worked out at 6 nM.
To `CC(=O)N1CC=C(c2cc(N3CCC[C@@H](NC(=O)c4sc(Cl)cc4OC4CC5CC4CN5)C3)c3c(N)ncnn23)C1` (single isomer, unassigned) [Example 607] belongs 3 nM; to `CC(=O)N1CC=C(c2cc(N3CCCC(NC(=O)c4sc(Cl)cc4OC4CC5CC4CN5C)C3)c3c(N)ncnn23)C1` (single isomer, unassigned) [Example 608], 8 nM; to `CC(=O)N1CC=C(c2cc(N3CCCC(NC(=O)c4sc(Cl)cc4OC4CC5CC4CN5C)C3)c3c(N)ncnn23)C1` (single isomer, unassigned) [Example 609], 7 nM.
Consider `CC(=O)N1CC=C(c2cc(N3CCCC(NC(=O)c4sc(Cl)cc4OC4CC5CC4CN5C(C)C)C3)c3c(N)ncnn23)C1` (single isomer, unassigned) [Example 610], for which the half-inhibitory concentration (IC50) came out at 11 nM.
The figure for `CC(=O)N1CC=C(c2cc(N3CCCC(NC(=O)c4sc(Cl)cc4OC4CC5CC4CN5C(C)C)C3)c3c(N)ncnn23)C1` (single isomer, unassigned) [Example 611] is 7 nM; for `CC(=O)N1CC=C(c2cc(N3CCCC(NC(=O)c4sc(Cl)cc4OC4CCNC(C)C4)C3)c3c(N)ncnn23)C1` (single isomer, unassigned) [Example 622] it is 3 nM; for `CC(=O)N1CC=C(c2cc(N3CCCC(NC(=O)c4sc(Cl)cc4OC4CCNC(C)C4)C3)c3c(N)ncnn23)C1` (single isomer, unassigned) [Example 623] it is 4 nM.
The figure for `CC1CC(Oc2cc(Cl)sc2C(=O)NC2CCCN(c3cc(-c4cncnc4)n4ncnc(N)c34)C2)CCN1` (single isomer, unassigned) [Example 625] is 6 nM.
The figure for `CC1CC(Oc2cc(Cl)sc2C(=O)NC2CCCN(c3cc(-c4cncnc4)n4ncnc(N)c34)C2)CCN1` (single isomer, unassigned) [Example 626] is 8 nM.
Regarding `COC(=O)N1CC=C(c2cc(N3CCCC(NC(=O)c4sc(Cl)cc4OC4CCNC(C)(C)C4)C3)c3c(N)ncnn23)C1` (single isomer, unassigned) [Example 629], the IC50 was found to be 5 nM.
On to `COC(=O)N1CC=C(c2cc(N3CCCC(NC(=O)c4sc(Cl)cc4OC4CCNC(C)(C)C4)C3)c3c(N)ncnn23)C1` (single isomer, unassigned) [Example 630], for which the IC50 was found to be 2 nM.
To `CC(=O)N1CC=C(c2cc(N3CCCC(NC(=O)c4sc(Cl)cc4OCC4CCNC4)C3)c3c(N)ncnn23)C1` (single isomer, unassigned) [Example 638] belongs 8 nM; to `CC(=O)N1CC=C(c2cc(N3CCCC(NC(=O)c4sc(Cl)cc4OCC4CCNC4)C3)c3c(N)ncnn23)C1` (single isomer, unassigned) [Example 639], 4 nM; to `CCOC(=O)[C@H]1CCCN(c2cc(-c3ccc(S(C)(=O)=O)cc3)n3ncnc(N)c23)C1` [Example 1, ethyl (S)-1-(4-amino-7-(4-(methylsulfonyl)phenyl)pyrrolo[2,1-f][1,2,4]triazin-5-yl)piperidine-3-carboxylate], 2990 nM.
